Assay results reported in paper PMC8916643, “Molecular physiology of pumiliotoxin sequestration in a poison frog” (PLoS ONE, 2022).

Tests used:
Assay in all cases: CYP phenotyping panel (PTX 251D clearance)
Format in all cases: in vitro ADME
human recombinant CYP2D6 = target: T1, human recombinant CYP2D6 (Homo sapiens, UniProt P10635); conditions: 1E-07 M PTX 251D
T1 construct: Eurofins Discovery Services (Eurofins Panlabs Inc) ran the assay
Method: (§1) Assays for human CYP activity (CYP phenotyping), CYP2D6 metabolite discovery (metID), ion channel inhibition (CiPA), and G-protein coupled receptor (GPCR) activity (gpcrMAX) were performed through Eurofins Discovery Services (Eurofins Panlabs Inc, St. Charles MO, USA). In the CYP phenotyping panel, human recombinant CYP1A2, CYP2B6, CYP2C8, CYP2C9, CYP2C19, CYP2D6, and CYP3A4 were included in the assay. A concentration of 1E-07 M of PTX 251D was tested, and the percent compound remaining was quantified at 0, 15, 30, 45, and 60 minutes using HPLC-MS/MS. As a positive control, a reference compound was used for each CYP tested (see S1 File for results). In the CYP2D6 metabolism assay, human recombinant CYP2D6 was incubated with an initial concentration of 10 μM and metabolites were quantified after 90 minutes using LC-MS/MS. Two replicates were used for the CYP phenotyping panel and one replicate was used for CYP2D6 metabolite assay. The CiPA assay was a cell-based QPatch on voltage-gated sodium channel NaV1.5 (peak and late/agonist), voltage-gated potassium channels Kv4.3/KChIP2, hERG, KCNQ1/minK, Kir2.1, and voltage-gated calcium channel Cav1.2. The concentrations of PTX 251D assayed were 3, 10, and 30 μM, and a reference compound for each channel was used (see S1 File for results and individual QPatch parameters). In the gpcrMAX assay a panel of 165 GPCRs was tested through the DiscoverX PathHunter beta-arrestin enzyme fragment complementation technology, and a concentration of 10 μM PTX 251D was tested for both agonist and antagonist activity along with a reference compound for each GPCR (see S1 File for results).

human recombinant CYP2C8 = target: T2, human recombinant CYP2C8 (Homo sapiens, UniProt P10632); conditions: 1E-07 M PTX 251D; after 60 minutes
T2 construct: Eurofins Discovery Services (Eurofins Panlabs Inc) ran the assay
T2 sequence (P10632 1-490): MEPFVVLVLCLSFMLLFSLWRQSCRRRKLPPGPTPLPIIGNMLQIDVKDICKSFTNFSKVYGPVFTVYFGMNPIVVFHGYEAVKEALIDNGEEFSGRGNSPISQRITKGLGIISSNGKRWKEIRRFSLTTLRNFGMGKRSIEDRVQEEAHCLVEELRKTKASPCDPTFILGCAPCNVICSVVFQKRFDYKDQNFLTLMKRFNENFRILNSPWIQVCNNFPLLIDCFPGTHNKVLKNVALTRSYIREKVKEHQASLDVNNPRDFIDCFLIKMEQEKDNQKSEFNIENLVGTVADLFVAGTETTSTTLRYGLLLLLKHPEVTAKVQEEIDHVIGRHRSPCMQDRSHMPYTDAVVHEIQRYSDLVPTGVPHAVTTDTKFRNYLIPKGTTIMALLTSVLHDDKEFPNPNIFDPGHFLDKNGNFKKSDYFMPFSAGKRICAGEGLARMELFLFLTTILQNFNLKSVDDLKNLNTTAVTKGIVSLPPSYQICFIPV
Method: as §1

human recombinant CYP2C9 = target: T3, human recombinant CYP2C9 (Homo sapiens, UniProt P11712); conditions: 1E-07 M PTX 251D; after 60 minutes
T3 construct: Eurofins Discovery Services (Eurofins Panlabs Inc) ran the assay
T3 sequence (P11712 whole entry): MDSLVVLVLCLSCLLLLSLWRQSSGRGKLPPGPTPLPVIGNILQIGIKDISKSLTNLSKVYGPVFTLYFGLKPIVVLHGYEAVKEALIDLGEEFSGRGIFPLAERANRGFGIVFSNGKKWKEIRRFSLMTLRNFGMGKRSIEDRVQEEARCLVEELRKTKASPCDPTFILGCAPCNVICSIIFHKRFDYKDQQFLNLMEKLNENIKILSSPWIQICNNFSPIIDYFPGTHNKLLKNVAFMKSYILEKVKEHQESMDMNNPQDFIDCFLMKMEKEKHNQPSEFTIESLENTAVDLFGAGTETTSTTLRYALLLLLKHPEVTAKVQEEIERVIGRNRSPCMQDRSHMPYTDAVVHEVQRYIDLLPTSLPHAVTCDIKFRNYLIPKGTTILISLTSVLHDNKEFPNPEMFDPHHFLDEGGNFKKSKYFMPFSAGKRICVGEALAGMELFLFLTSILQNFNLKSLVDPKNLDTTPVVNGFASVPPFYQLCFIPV
Method: as §1

[1] = target: T4, human recombinant CYP2C19 (Homo sapiens, UniProt P33261); conditions: 1E-07 M PTX 251D; after 60 minutes
T4 construct: Eurofins Discovery Services (Eurofins Panlabs Inc) ran the assay
T4 sequence (P33261 whole entry): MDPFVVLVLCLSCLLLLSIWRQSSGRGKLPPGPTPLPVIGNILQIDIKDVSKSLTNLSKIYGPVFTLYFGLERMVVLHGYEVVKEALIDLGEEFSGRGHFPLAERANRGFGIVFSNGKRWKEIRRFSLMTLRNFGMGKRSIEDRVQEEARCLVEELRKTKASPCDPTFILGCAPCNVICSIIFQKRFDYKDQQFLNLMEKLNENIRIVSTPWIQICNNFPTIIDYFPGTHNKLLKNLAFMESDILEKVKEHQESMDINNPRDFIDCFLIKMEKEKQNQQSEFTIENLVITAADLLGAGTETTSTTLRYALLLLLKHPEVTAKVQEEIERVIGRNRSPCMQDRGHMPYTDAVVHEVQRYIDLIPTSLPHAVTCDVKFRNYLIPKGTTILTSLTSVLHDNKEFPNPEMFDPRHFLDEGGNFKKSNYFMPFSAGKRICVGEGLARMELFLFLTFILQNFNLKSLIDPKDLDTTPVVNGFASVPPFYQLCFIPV
Method: as §1

human recombinant CYP2B6 = target: T5, human recombinant CYP2B6 (Homo sapiens, UniProt P20813); conditions: 1E-07 M PTX 251D; after 60 minutes
T5 construct: Eurofins Discovery Services (Eurofins Panlabs Inc) ran the assay
T5 sequence (P20813 1-491): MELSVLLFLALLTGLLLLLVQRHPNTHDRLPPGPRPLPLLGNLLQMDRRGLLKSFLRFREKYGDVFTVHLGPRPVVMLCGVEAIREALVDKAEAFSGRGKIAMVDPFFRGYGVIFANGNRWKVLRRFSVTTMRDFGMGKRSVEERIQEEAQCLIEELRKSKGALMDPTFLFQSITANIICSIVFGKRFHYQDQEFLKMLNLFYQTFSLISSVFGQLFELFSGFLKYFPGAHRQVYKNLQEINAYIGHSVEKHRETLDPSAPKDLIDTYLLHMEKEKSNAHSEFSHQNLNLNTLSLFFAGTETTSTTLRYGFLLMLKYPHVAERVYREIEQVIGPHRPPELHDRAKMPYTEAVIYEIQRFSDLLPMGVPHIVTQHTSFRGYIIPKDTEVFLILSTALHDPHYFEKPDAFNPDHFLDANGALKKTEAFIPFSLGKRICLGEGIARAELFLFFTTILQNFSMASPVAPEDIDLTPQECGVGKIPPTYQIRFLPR
Method: as §1

human recombinant CYP3A4 = target: T6, human recombinant CYP3A4 (Homo sapiens, UniProt P08684); conditions: 1E-07 M PTX 251D; after 60 minutes
T6 construct: Eurofins Discovery Services (Eurofins Panlabs Inc) ran the assay
T6 sequence (P08684 whole entry): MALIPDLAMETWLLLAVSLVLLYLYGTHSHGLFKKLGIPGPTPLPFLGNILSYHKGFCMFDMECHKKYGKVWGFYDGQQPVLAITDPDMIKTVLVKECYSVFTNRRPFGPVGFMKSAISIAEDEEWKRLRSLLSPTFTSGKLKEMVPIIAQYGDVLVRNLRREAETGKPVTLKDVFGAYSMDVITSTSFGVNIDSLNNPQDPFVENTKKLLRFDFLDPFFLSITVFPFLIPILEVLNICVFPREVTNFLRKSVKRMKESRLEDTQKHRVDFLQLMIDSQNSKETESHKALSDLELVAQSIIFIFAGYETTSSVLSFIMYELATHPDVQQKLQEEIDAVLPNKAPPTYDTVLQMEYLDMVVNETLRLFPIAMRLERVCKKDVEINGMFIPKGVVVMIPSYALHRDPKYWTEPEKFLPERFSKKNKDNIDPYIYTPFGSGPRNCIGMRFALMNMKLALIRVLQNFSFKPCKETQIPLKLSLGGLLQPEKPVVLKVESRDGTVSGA
Method: as §1

human recombinant CYP1A2 = target: T7, human recombinant CYP1A2 (Homo sapiens, UniProt P05177); conditions: 1E-07 M PTX 251D; after 60 minutes
T7 construct: Eurofins Discovery Services (Eurofins Panlabs Inc) ran the assay
T7 sequence (P05177 1-516): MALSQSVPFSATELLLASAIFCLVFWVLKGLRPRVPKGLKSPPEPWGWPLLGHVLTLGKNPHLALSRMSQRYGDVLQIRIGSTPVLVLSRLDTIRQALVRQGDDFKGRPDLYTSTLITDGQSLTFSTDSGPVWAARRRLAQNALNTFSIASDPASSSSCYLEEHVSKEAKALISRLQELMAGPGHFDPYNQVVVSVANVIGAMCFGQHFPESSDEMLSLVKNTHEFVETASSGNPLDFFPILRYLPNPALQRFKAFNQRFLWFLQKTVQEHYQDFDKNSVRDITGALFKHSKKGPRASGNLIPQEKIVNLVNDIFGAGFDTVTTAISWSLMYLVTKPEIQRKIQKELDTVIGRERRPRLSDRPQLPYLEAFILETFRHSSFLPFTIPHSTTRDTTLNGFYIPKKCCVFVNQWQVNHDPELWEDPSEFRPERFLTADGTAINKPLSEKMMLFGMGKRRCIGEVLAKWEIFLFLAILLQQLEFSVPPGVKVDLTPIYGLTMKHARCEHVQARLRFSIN
Method: as §1

T1 sequence (P10635 whole entry): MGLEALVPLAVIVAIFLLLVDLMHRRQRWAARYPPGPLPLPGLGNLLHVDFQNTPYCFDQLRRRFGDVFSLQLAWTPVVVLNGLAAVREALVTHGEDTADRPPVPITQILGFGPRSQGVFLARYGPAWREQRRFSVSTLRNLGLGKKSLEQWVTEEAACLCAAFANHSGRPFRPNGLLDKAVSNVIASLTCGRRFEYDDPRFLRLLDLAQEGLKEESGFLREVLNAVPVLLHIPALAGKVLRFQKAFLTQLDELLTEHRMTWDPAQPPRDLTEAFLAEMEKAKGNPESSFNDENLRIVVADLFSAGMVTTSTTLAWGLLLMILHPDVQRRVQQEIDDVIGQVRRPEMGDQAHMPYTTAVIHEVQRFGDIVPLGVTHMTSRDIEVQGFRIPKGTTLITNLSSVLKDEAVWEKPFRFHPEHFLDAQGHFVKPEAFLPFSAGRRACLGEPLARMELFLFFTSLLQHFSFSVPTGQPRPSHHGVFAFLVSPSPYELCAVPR

SMILES: CCCCC(C)C=C1CN2CCCC2C(C)(O)C1 (centres unmarked) [PTX 251D, pumiliotoxin (PTX 251D)]
- PTX 251D remaining after incubation with CYP2D6 (human recombinant CYP2D6; after 15 minutes): most of the initial compound depleted
- clearance of PTX 251D by CYP2D6 (human recombinant CYP2D6; percent compound remaining at 0-60 minutes, HPLC-MS/MS): rapid clearance
- clearance of PTX 251D by CYP2C8 (human recombinant CYP2C8): minimal clearance
- clearance of PTX 251D by CYP2C9 (human recombinant CYP2C9): minimal clearance
- clearance of PTX 251D by CYP2C19 [1]: minimal clearance
- clearance of PTX 251D by CYP2B6 (human recombinant CYP2B6): minimal clearance
- clearance of PTX 251D by CYP3A4 (human recombinant CYP3A4): minimal clearance
- clearance of PTX 251D by CYP1A2 (human recombinant CYP1A2): minimal clearance
